Assay results: patent publication US20260176252A1, “IONIZABLE LIPIDS WITH BRANCHED HEAD GROUPS” (Beam Therapeutics Inc., priority 2023, published 2026)

How the values were obtained:
[1] = Encapsulation efficiency of LNP preparations (unlysed and lysed LNPs); assay type: physicochemical; conditions: Table D; LNP formulation ratio 47.5:40:2.5:10, ABE mRNA + PCSK9 sgRNA 1:1
Protocol: Concentration of NA is determined by Qubit microRNA kit (for siRNA) or HS RNA kit (for mRNA) per manufacturer's instructions. Encapsulation efficiency is determined by measuring unlysed and lysed LNPs.

[2] = Dynamic light scattering (DLS) of LNP preparations: size (diameter) and polydispersity; assay type: physicochemical; conditions: Table D; LNP formulation ratio 47.5:40:2.5:10, ABE mRNA + PCSK9 sgRNA 1:1
Protocol: A ratio of aqueous to organic solvent of approximately 2:1 or 3:1 was maintained during mixing using differential flow rates. After mixing, LNP preparations were collected, diluted in phosphate buffer saline (PBS) or Tris-buffered saline (TBS) (approximately 1:1 v/v). Further buffer exchange was conducted using dialysis in PBS or TBS at 4° C. for 4 to 24 hours against a 20 kDa filter. After this initial dialysis, each individual LNP preparation may be characterized via dynamic light scattering (DLS) to measure the size (e.g., diameter) and polydispersity. LNP preparations falling within specific diameter and polydispersity ranges were pooled, and further dialyzed against PBS or TBS at 4° C. for 1 to 4 hours against a 100 kDa dialysis cassette. After the second dialysis, LNP preparations were sterile filtered using 0.22 μm filter and stored at 4° C. for further use.
(§1) LNP preparations are formed by microfluidic mixing of the lipid and NA solutions using a Precision Nanosystems NanoAssemblr Ignite Instrument, according to the manufacturer's protocol. A 3:1 ratio of aqueous to organic solvent is maintained during mixing using differential flow rates. After mixing, LNP preparations are collected, diluted in PBS (approximately 2:1 v/v), and further buffer exchange is conducted using dialysis in PBS at 4° C. for 8 to 24 hours against a 20 kDa filter. After this initial dialysis, each individual LNP preparation is characterized via dynamic light scattering (DLS) to measure size and polydispersity. pKa of a subpopulation of LNP preparations is measured via TNS assay. After dialysis, LNP preparations are sterile filtered using 0.22 micron sterile filter and stored at 4° C. for further use. In some embodiments, LNP preparations may be concentrated using 100 kDa Amicon filters per manufacturer's protocol.
DLS-LNP preparation hydrodynamic diameter and polydispersity index (PDI) is measured using high throughput dynamic light scattering (DLS) (DynaPro plate reader II, Wyatt). LNP preparations are diluted 1×PBS to an appropriate concentration and analyzed.

PCSK9 target site = test: In vivo base editing with LNP-delivered ABE mRNA and sgRNA targeting PCSK9; conditions: Balb/c mice, IV tail vein, 0.03 mg/kg total RNA, 4 days after dosing
Protocol: Lipid nanoparticle components are dissolved in 100% ethanol at specified lipid component molar ratios. mRNA encoding an adenine base editor and a chemically-modified sgRNA is dissolved at a mass ratio of 1:1 in 10 mM citrate, 100 mM NaCl, pH 4.0, resulting in a concentration of NA cargo of approximately 0.22 mg/mL. LNP preparations are formulated with molar ratios of either 50% Ionizable Lipid:38.5% Cholesterol:1.5% PEG2000-DMG: 10% DSPC or 47.5% Ionizable Lipid:40% Cholesterol:2.5% PEG2000-DMG: 10% DSPC both at a total lipid to NA molar ratio of 6.
as §1
Male Balb/C mice aged approximately 8-12 weeks are used in the experiments described herein. Each mouse is temporarily restrained, and LNP preparations are administered IV via tail vein injection. Age-matched mice are also used to administer vehicle (1×PBS) via tail vein injection as a control. […]
For base editing, mRNA encoding an adenine base editor (ABE) and a guide RNA (sgRNA) targeting PCSK9 at 1:1 (mass ratio) are coencapsulated in LNP preparations as described herein. […] Base editing is determined by performing targeted deep sequencing analysis at the PCSK9 target site using extracted genomic DNA.

[3] = pKa of LNP preparations via TNS assay; assay type: physicochemical; conditions: Table D; LNP formulation ratio 47.5:40:2.5:10
Protocol: as §1

Row | EE (%) [1] | Diameter (nm) [2] | pKa [3] | Structure (SMILES) | Liver Editing A->G (%) (PCSK9 target site)
1 | 96.1% | 73.3 nm | 6.72 | C=CC(C)(CCC=C(C)CCC=C(C)C)OC(=O)CCCCCC(=O)OCC(COC(=O)CCCCCC(=O)OC(C)(C=C)CCC=C(C)CCC=C(C)C)COC(=O)CCC(CCCCCC)OC(=O)NCCN1CCCC1 (stereo not drawn) [Example 13, 1-{2-[({7-oxo-7-[(3,7,11-trimethyldodeca-1,6,10-trien-3-yl)oxy]heptanoyl}oxy)methyl]-3-{[4-({[2-(pyrrolidin-1-yl)ethyl]carbamoyl}oxy)decanoyl]oxy}propyl}7-(3,7,11-trimethyldodeca-1,6,10-trien-3-yl) heptanedioate] | 1.2%
2 | 97.7% | 77.15 nm | 6.78 | CCCCCCC(CCC(=O)OCC(COC(=O)CCCCCC(=O)OCC=C(C)CCC=C(C)CCC=C(C)C)COC(=O)CCCCCC(=O)OCC=C(C)CCC=C(C)CCC=C(C)C)OC(=O)NCCN1CCCC1 (stereo not drawn) [Example 14, 1-{2-[({7-oxo-7-[(3,7,11-trimethyldodeca-2,6,10-trien-1-yl)oxy]heptanoyl}oxy)methyl]-3-{[4-({[2-(pyrrolidin-1-yl)ethyl]carbamoyl}oxy)decanoyl]oxy}propyl}7-(3,7,11-trimethyldodeca-2,6,10-trien-1-yl) heptanedioate] | 23.6%
3 | 98.5% | 74.1 nm | 6.32 | CCCCCCC(CCC(=O)OCC(COC(=O)CCCCCC(=O)OCC=C(C)CCCC(C)CCCC(C)CCCC(C)C)COC(=O)CCCCCC(=O)OCC=C(C)CCCC(C)CCCC(C)CCCC(C)C)OC(=O)NCCN1CCCC1 (stereo not drawn) [Example 15, 1-{2-[({7-oxo-7-[(3,7,11,15-tetramethylhexadec-2-en-1-yl)oxy]heptanoyl}oxy)methyl]-3-{[4-({[2-(pyrrolidin-1-yl)ethyl]carbamoyl}oxy)decanoyl]oxy}propyl}7-(3,7,11,15-tetramethylhexadec-2-en-1-yl) heptanedioate] | 15.7%
